Patent publication US20240270821A1, “GIP/GLP1/GCG TRI-RECEPTOR AGONISTS AND USES THEREOF” (priority 2023, published 2024)
Like-named read-outs stand apart in the source and are kept apart here. Starred links: 1 amine or outer side, 2 acyl side, 3 side chain; linkers in the order of their positions; H or OH if unused. Non-standard residues stand in square brackets, D forms with d. Groups on a side chain read outwards from the residue. *: point of attachment. C20 diacid = O=C(O)CCCCCCCCCCCCCCCCCCC(=O)*; C18 diacid = O=C(O)CCCCCCCCCCCCCCCCC(=O)*; αMePhe(2-F) = C[C@](N)(Cc1ccccc1F)C(=O)O; γGlu = O=C(O)[C@H](CCC(=O)[*:2])N[*:1]; αMe4Pal = C[C@](N)(Cc1ccncc1)C(=O)O; αMeY = C[C@](N)(Cc1ccc(O)cc1)C(=O)O; 4Pal = N[C@@H](Cc1ccncc1)C(=O)O; αMeL = CC(C)C[C@](C)(N)C(=O)O; αMeS = C[C@](N)(CO)C(=O)O; Orn = NCCC[C@H](N)C(=O)O; AEEA = NCCOCCOCC(=O)O; Aib = CC(C)(N)C(=O)O

Legend:
Format in all cases: cell-based
[1] = target: hGcgR (Homo sapiens, UniProt P47871); experiment: Functional cAMP activation in the presence of 0.1% casein (no HSA); conditions: read-out: Relative cAMP EC50, hGcgR;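 also: intracellular cAMP rise after 30 min at 37 °C, read by HTRF against a cAMP standard curve, scaled from buffer only (0%) to maximal control ligand response (100%)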
Sequence of hGcgR (P47871 26-477): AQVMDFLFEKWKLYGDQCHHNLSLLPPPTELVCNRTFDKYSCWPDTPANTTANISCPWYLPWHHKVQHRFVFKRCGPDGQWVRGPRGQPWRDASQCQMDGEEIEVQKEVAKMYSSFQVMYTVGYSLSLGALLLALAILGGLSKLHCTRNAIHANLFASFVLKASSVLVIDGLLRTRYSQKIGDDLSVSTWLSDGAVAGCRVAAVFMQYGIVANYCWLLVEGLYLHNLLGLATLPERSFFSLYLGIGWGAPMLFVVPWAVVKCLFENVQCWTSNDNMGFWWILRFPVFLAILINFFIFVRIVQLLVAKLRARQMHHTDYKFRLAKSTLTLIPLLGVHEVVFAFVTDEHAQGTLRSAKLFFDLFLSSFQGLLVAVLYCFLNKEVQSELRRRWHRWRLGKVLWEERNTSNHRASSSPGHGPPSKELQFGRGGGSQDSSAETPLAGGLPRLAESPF

[2] = target: T1, hGLP-1R (Homo sapiens, UniProt P43220); experiment: as above; conditions: read-out: Relative cAMP EC50, hGLP-1R;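 also: intracellular cAMP rise after 30 min at 37 °C read by HTRF, normalized between buffer only (0%) and maximal control ligand (100%), four-parameter variable-slope fit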
T1 sequence (P43220 24-463): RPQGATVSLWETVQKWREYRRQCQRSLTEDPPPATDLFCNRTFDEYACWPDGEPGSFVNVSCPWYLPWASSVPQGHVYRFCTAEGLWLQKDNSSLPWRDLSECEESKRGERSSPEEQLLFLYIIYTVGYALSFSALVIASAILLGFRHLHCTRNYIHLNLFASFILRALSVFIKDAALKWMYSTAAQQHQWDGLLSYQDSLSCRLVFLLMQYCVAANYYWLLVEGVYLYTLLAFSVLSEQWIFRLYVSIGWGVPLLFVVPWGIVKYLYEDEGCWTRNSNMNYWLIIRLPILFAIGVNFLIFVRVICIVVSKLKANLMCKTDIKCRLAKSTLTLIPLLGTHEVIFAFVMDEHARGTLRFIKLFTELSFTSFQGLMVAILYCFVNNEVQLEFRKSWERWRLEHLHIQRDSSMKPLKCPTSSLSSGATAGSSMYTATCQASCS

[3] = target: T2, hGIPR (Homo sapiens, UniProt P48546); experiment: Functional cAMP activity in the presence of 1% HSA; conditions: read-out: cAMP Rel EC50, hGIPR
T2 sequence (P48546 22-466): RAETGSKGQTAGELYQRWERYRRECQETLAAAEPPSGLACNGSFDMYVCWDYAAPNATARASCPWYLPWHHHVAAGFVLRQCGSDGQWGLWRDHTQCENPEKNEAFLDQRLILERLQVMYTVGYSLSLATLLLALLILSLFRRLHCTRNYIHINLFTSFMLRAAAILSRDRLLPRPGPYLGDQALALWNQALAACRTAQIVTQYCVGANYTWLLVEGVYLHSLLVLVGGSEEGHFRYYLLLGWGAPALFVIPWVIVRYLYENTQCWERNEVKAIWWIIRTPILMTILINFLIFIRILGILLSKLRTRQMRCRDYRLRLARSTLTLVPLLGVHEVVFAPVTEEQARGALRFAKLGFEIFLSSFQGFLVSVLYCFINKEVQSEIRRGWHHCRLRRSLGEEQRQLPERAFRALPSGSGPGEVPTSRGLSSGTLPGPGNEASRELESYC

[4] = target: T2, hGIPR; experiment: Functional cAMP activation in the presence of 0.1% casein (no HSA); conditions: read-out: Relative cAMP EC50, hGIPR;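 as to Relative cAMP EC50, hGIPR: intracellular cAMP rise after 30 min at 37 °C read by HTRF against a standard curve, scaled between buffer alone (0%) and top control ligand concentration (100%), four-parameter fit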;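 as to Relative cAMP EC50, hGLP-1R: intracellular cAMP rise after 30 min at 37 °C read by HTRF, normalized between buffer only (0%) and maximal control ligand (100%), four-parameter variable-slope fit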
[5] = target: T1, hGLP-1R; experiment: Functional cAMP activity in the presence of 1% HSA; conditions: read-out: cAMP Rel EC50, hGLP-1R
[6] = target: human GcgR (Homo sapiens, UniProt P47871); experiment: Functional cAMP activity in the presence of 1% HSA; conditions: read-out: cAMP Rel EC50, hGcgR
Sequence of human GcgR (P47871 26-477): as the sequence (P47871 26-477) above

[7] = in the presence of 0.1% casein (no HSA), geometric mean of relative EC50
[8] = HEK-293 clonal cell line, 1% HSA, geometric mean of relative EC50
[9] = 0.1% casein, no HSA, geometric mean
[10] = in the presence of 0.1% casein (no HSA), geometric mean

| EC50 [1, 10] | EC50 [2, 10] | EC50 [4, 10] | Compound | EC50 [3] | EC50 [5] | EC50 [6] | other results |
| --- | --- | --- | --- | --- | --- | --- | --- |
|  |  |  | CC[C@H](C)[C@H](NC(=O)[C@H](Cc1ccccc1)NC(=O)[C@H](CCCN)NC(=O)C(C)(C)NC(=O)[C@H](CCC(N)=O)NC(=O)[C@H](C)NC(=O)[C@H](CCCCNC(=O)CC[C@H](NC(=O)CNC(=O)CCCCCCCCCCCCCCCCC(=O)O)C(=O)O)NC(=O)[C@H](CCCN)NC(=O)[C@H](CC(=O)O)NC(=O)[C@H](CC(C)C)NC(=O)[C@](C)(CC(C)C)NC(=O)[C@@H](NC(=O)[C@](C)(CO)NC(=O)[C@H](Cc1ccncc1)NC(=O)[C@H](CC(=O)O)NC(=O)[C@H](CO)NC(=O)[C@@H](NC(=O)[C@](C)(Cc1ccccc1F)NC(=O)[C@@H](NC(=O)CNC(=O)[C@H](CCC(N)=O)NC(=O)C(C)(C)NC(=O)[C@@H](N)Cc1ccc(O)cc1)[C@@H](C)O)[C@@H](C)O)[C@@H](C)CC)C(=O)N[C@H](CCC(=O)O)C(=O)N[C@@](C)(Cc1ccc(O)cc1)C(=O)N[C@@H](CC(C)C)C(=O)N[C@@H](CCC(N)=O)C(=O)N[C@@H](CCC(=O)O)C(=O)NCC(=O)NCC(=O)N1CCC[C@H]1C(=O)N[C@@H](CO)C(=O)N[C@@H](CO)C(=O)NCC(=O)N[C@@H](CCC(=O)O)C(=O)N1CCC[C@H]1C(=O)N1CCC[C@H]1C(=O)N1CCC[C@H]1C(=O)N[C@@H](CCC(=O)O)C(=O)NCC(=O)N[C@H](C(=O)N[C@@H](CCC(=O)O)C(=O)N[C@@H](CCC(=O)O)C(N)=O)[C@@H](C)O [Example 658] |  |  |  | EC50 [1, 7]: 1.05 nM; EC50 [2, 7]: 0.34 nM; EC50 [3, 8]: 12 nM; EC50 [4, 7]: 0.0379 nM; EC50 [5, 8]: 106 nM; EC50 [6, 8]: 376 nM |
|  |  |  | H-Y[Aib]QGT[αMePhe(2-F)]TSD[4Pal]SI[αMeL]LD[Orn]K([AEEA-γGlu-C18 diacid])AQ[αMe4Pal][Orn]FI[dE][αMeY]LIEGGPSSGDPPPETE-NH2 [Example 730] | 1.29 nM | 33 nM | 216 nM | EC50 [1]: 2.46 nM; EC50 [2]: 0.248 nM; EC50 [4]: 0.0122 nM |
|  |  |  | H-Y[Aib]QGT[αMePhe(2-F)]TSD[4Pal][αMeS]I[αMeL]LD[Orn]K([γGlu-γGlu-C18 diacid])AQ[αMe4Pal]EFI[dE][αMeY]LIEGGPSSGAPPPSGGGEEE-NH2 [Example 1219] | 0.629 nM | 46.8 nM | 168 nM | EC50 [1, 9]: 1.64 nM; EC50 [2, 9]: 0.624 nM; EC50 [4, 9]: 0.0101 nM |
|  |  |  | CC[C@H](C)[C@H](NC(=O)[C@H](CC(C)C)NC(=O)[C@](C)(Cc1ccc(O)cc1)NC(=O)[C@@H](CCC(=O)O)NC(=O)[C@@H](NC(=O)[C@H](Cc1ccccc1)NC(=O)[C@H](CCC(=O)O)NC(=O)C(C)(C)NC(=O)[C@H](C)NC(=O)[C@H](C)NC(=O)[C@H](CCCCNC(=O)COCCOCCNC(=O)CC[C@H](NC(=O)CCCCCCCCCCCCCCCCC(=O)O)C(=O)O)NC(=O)[C@H](CCCN)NC(=O)[C@H](CC(=O)O)NC(=O)[C@H](CC(C)C)NC(=O)[C@](C)(CC(C)C)NC(=O)[C@@H](NC(=O)[C@](C)(CO)NC(=O)[C@H](Cc1ccncc1)NC(=O)[C@H](CC(=O)O)NC(=O)[C@H](CO)NC(=O)[C@@H](NC(=O)[C@](C)(Cc1ccccc1F)NC(=O)[C@@H](NC(=O)CNC(=O)[C@H](CCC(N)=O)NC(=O)C(C)(C)NC(=O)[C@@H](N)Cc1ccc(O)cc1)[C@@H](C)O)[C@@H](C)O)[C@@H](C)CC)[C@@H](C)CC)C(=O)N[C@@H](CCC(=O)O)C(=O)NCC(=O)NCC(=O)N1CCC[C@H]1C(=O)N[C@@H](CO)C(=O)N[C@@H](CO)C(=O)NCC(=O)N[C@@H](C)C(=O)N1CCC[C@H]1C(=O)N1CCC[C@H]1C(=O)N1CCC[C@H]1C(=O)N[C@@H](CO)C(=O)NCC(=O)N[C@@H](CO)C(N)=O [Example 671] | 0.657 nM | 17.6 nM | 152 nM | EC50 [1]: 1.81 nM; EC50 [2]: 0.166 nM; EC50 [4]: 0.00807 nM |
| 4.32 nM | 3.05 nM | 0.55 nM | H-Y[Aib]QGTFTSDFSK[αMeL]LDKK([AEEA-γGlu-C20 diacid])AQ[Aib]AFIEYLLEGGPSSGEPPPEEG-NH2 [Example 35] | 194 nM | 1130 nM | 1390 nM |  |
|  |  |  | H-Y[Aib]QGT[αMePhe(2-F)]TSD[4Pal][αMeS]I[αMeL]LD[Orn][Orn]([AEEA-γGlu-C18 diacid])AQ[αMe4Pal]EFI[dE][αMeY]LIEGGPSSGAPPPSGSE-NH2 [Example 1212] | 0.614 nM | 38.2 nM | 230 nM | EC50 [1, 9]: 1.71 nM; EC50 [2, 9]: 0.357 nM; EC50 [4, 9]: 0.00702 nM |
| 7.19 nM | 1.61 nM | 0.205 nM | H-Y[Aib]QGTFTSDFSK[αMeL]LDKK([AEEA-γGlu-C20 diacid])AQ[Aib]AFIEYLLAGGPSSGEPPPGGS-NH2 [Example 9] | 41.8 nM | 402 nM | 1430 nM |  |

| Compound | EC50 [1, 10] | EC50 [2, 10] | EC50 [4, 10] | EC50 [3] | EC50 [5] | EC50 [6] | other results |
| --- | --- | --- | --- | --- | --- | --- | --- |
| H-Y[Aib]QGTFTSDFS[Orn][αMeL]LDKK([AEEA-γGlu-C18 diacid])AQ[Aib]AFIEWLLEGGHSSGAPPPSGS-NH2 [Example 170] | 5.29 nM | 4.11 nM | 0.401 nM | 43.5 nM | 361 nM | 1800 nM |  |
